Experimental data: patent US20230087609A1, “USE OF A SOLUBLE GUANYLATE CYCLASE (sGC) STIMULATOR OR OF A COMBINATION OF A sGC STIMULATOR AND AN sGC ACTIVATOR FOR CONDITIONS WHEREIN THE HEME GROUP OF sGC IS OXIDIZED OR WHEREIN sGC IS DEFICIENT IN HEME” (Universiteit Maastricht, priority 2020, published 2023)

Molecular target: T1, apo-sGC (sGCβ1 H105F knock-in) (Mus musculus, UniProt O54865, H105F)
T1 construct: from tissue; host or cells: lung homogenate of homozygous sGCβ1 H105F knock-in mice
T1 sequence (O54865 1-620 H105F): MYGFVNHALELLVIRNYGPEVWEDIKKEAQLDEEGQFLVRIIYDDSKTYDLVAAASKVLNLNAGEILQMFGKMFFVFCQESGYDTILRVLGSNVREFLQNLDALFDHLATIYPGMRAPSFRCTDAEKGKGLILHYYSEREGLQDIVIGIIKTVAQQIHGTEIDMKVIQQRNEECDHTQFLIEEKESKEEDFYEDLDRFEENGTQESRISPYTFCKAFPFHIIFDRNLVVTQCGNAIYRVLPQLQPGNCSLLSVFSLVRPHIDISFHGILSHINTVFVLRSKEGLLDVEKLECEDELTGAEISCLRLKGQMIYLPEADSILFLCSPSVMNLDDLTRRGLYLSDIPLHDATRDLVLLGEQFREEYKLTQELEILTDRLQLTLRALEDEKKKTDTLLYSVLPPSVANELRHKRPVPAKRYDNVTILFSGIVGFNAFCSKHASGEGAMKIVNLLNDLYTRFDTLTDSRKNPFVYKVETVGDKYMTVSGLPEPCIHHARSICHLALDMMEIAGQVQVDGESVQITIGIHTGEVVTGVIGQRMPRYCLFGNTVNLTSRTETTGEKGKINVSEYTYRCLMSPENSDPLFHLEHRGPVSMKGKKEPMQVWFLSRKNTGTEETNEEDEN
T1 sequence (Q9ERL9 1-691 partner): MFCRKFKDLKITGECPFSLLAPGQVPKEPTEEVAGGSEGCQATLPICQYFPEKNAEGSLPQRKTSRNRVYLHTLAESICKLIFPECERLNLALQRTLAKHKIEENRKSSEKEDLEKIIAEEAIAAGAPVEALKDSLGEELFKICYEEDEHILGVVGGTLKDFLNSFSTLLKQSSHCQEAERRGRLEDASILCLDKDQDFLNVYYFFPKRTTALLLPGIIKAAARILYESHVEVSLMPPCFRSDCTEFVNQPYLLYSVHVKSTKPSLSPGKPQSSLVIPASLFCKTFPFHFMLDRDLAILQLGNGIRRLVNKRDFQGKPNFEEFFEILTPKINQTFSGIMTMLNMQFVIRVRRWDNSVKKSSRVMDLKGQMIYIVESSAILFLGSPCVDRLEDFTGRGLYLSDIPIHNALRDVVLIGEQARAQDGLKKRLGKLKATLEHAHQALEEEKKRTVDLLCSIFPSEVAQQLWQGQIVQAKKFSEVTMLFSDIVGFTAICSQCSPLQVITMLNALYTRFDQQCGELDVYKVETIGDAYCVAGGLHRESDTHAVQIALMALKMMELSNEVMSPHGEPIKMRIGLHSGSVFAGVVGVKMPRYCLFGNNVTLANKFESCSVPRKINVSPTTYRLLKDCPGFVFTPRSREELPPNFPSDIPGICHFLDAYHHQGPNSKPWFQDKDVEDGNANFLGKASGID
Assay: sGC activity in lung homogenates of apo-sGC mice
Assay type: biochemical
Experimental: Adult male Sprague Dawley (SD) rats (age, 10-12 weeks) were obtained from Animal Resources Centre (Western Australia). Animals were housed on a 12 hour day/night cycle at a room temperature of 20±2° C., in the Department of Pharmacology Animal House, Monash University. The animals were fed standard rodent chow and water was available ad libitum. Homozygous male sGC(1^H105F knock-in mice (“apo-sGC mice”) were kindly provided by Tufts Medical Center, Molecular Cardiology Research Center, Boston, Mass., USA (Toonen et al., Nat Commun. 2015; 6:8482. doi: 10.1038/ncomms9482).
To measure sGC activity, cells were stimulated with 250 μM DEA/NO or 10 μM BAY58-2667 for 3 min at 37° C. Thereafter, cells were immediately lysed in 80% ethanol. Cells were scraped and, after evaporation of ethanol, re-suspended in assay buffer and sonicated. Measurement of sGC activity in crude homogenates of mouse tissue was performed as previously described (Nedvetsky et al., Brain Res. 2002; 950(1-2):148-154. doi: 10.1016/50006-8993(02)03015-9).[9] Briefly, all samples were measured as the formation of cGMP at 37° C. during 10 min in a total incubation volume of […] containing 50 mM triethanolamine-HCl (pH 7.4), 3 mM MgCl2, 3 mM glutathione (Carl Roth, Karlsruhe, Germany), 1 mM IBMX, […], 5 mM creatine phosphate, 0.25 mg/ml creatine kinase and 1 mM or 0.5 mM GTP. After adding sGC activator in the absence or presence of the sGC stimulator the reaction was started by application of GTP solution. Following incubation of each sample for 10 min the reaction was stopped by boiling for 10 min at 95° C. Thereafter the amount of cGMP was subsequently determined by a commercial enzyme immunoassay kit (Enzo Life Sciences, Lorrach, Germany or Biotrend, Cologne, Germany). In some experiments pre-incubation of freshly homogenized tissue with ODQ at 37° C. for 20 min prior measuring sGC activation was required.

## Nc1nc(-c2nn(Cc3ccccc3F)c3ncccc23)ncc1C1CC1 [BAY 41-2272, 5-cyclopropyl-2-[1-(2-fluoro-benzyl)-1H-pyrazolo[3,4-b]pyridin-3-yl]-pyrimidin-4-ylamine]
10 μM BAY 41-2272, in presence and in absence of 10 μM ODQ (FIG. 11)
  cGMP formation on stimulation with the sGC stimulator: cGMP is synthesized
Lung homogenates of apo-sGC mice, compound alone
  sGC activity, response to compound alone: can also be activated
